Measurements: patent publication US20220073942A1, “Cells with reduced inhibitor production and methods of use thereof” (PFIZER INC., priority 2018, published 2022)
Like-named read-outs stand apart in the source and are kept apart here.

Columns and labels:
CHO cells (cell line A) = details: fresh Medium A supplemented with formate at 0, 2, 4 and 6 mM, growth monitored for 5 or 6 days, FIG. 3B
Protocol: CHO cells (cell line A or cell line B) producing a recombinant antibody were inoculated at low cell densities (0.1 E6 cells/mL) in various conditions in triplicates in 6-well plate cultures. The working volume for each well on day 0 was 4 mL. Cell line A was inoculated either in fresh Medium A or fresh Medium A supplemented with formate at various concentrations. Cell line B was inoculated either in fresh Medium A or fresh Medium A supplemented with glycerol at various concentrations. The concentrations tested for formate were [0, 2, 4 and 6 mM] and for glycerol were [0, 2 and 4 mM]. The 6-well plates were incubated on a shaking platform in 36.5C and 5% carbon dioxide. Cell growth in all the conditions was monitored for 5 or 6 days.

CHO cells (cell line B) = assay: Effect of glycerol on growth (viable cell density) of CHO cells in 6-well plate culture; assay type: cell-based, Chinese hamster; details: fresh Medium A supplemented with glycerol at 0, 2 and 4 mM, growth monitored for 5 or 6 days, FIG. 3A

SMILES | concentration at which cell growth was suppressed (CHO cells (cell line A)) | concentration at which cell growth was suppressed (CHO cells (cell line A); listed as Formate) [mM] | concentration at which cell growth was suppressed (CHO cells (cell line B)) | concentration at which cell growth was suppressed (CHO cells (cell line B); listed as Glycerol) [mM]
O=CO [formate] | higher than 2 mM | ≥ 2 |  | 
OCC(O)CO [glycerol] |  |  | higher than 2 mM | ≥ 2
